US9532977B2, “Controlled release oral dosage forms of poorly soluble drugs and uses thereof” (Celgene Corporation, priority 2010, dated 2017)
Values after ≈ are worked out from the molar mass of the structure shown.

Columns and labels:
[1] = pharmacokinetic parameters of Compound A in monkeys; settings: monkey, in vivo, 10 mg/kg PO
Description: (§1) The aqueous room temperature solubilities of Compounds A and Compound B is 6.9 μg/mL and 2.0 μg/mL, respectively. Daily doses of Compound A ranging from 10 mg to 100 mg per day have been administered to approximately 1000 subject in clinical studies to date. […] Therefore a controlled release dosage is clearly needed for Compound A.

[2] = aqueous room temperature solubility; assay type: physicochemical; settings: for solubility: water, aqueous, room temperature
Description: as §1

| half-life [1] [h] | aqueous solubility of amorphous form compared to crystalline forms ([2]; amorphous form vs crystalline forms) | solubility [2] [µg/mL] | Structure (SMILES) |
| --- | --- | --- | --- |
| ~2 | greater aqueous solubility | 6.9 (≈ 15 µM) | CCOc1cc([C@@H](CS(C)(=O)=O)N2C(=O)c3cccc(NC(C)=O)c3C2=O)ccc1OC [Compound A, (S)—N-{2-[1-(3-ethoxy-4-methoxy-phenyl)-2-methanesulfonylethyl]-1,3-dioxo-2,3-dihydro-1H-isoindol-4-yl}acetamide] |
|  |  | 2 (≈ 4.23 µM) | CCOc1cc([C@@H](CS(C)(=O)=O)N2Cc3cccc(NC(=O)C4CC4)c3C2=O)ccc1OC [Compound B, cyclopropanecarboxylic acid {2-[(1S)-1-(3-ethoxy-4-methoxy-phenyl)-2-methanesulfonyl-ethyl]-3-oxo-2,3-dihydro-1H-isoindol-4-yl}-amide] |
